Experiments:
human Nav1.7 = target: T1, human Nav1.7 (Homo sapiens, UniProt Q15858); assay: FRET assay, human Nav1.7 channels expressed in CHO cells; format: cell-based; conditions: CHO cells expressing human NaV1.7, veratridine-opened channels
T1 construct: expressed in transfected cells; host or cells: CHO
Experimental: (§1) The ability of the picolinamide derivatives of the formula (I) to inhibit the NaV1.3,Nav1.7 and Nav1.5 channels was measured by FRET assay and electrophysiology assay described below.
(§2) This screen is used to determine the effects of compounds on human Nav1.3, human Nav1.7, and human Nav1.5 channels, utilising the cell imaging technology by Hamamatsu Photonics's Functional Drug Screening System (FDSS). This experiment is based on FRET (Fluorescence Resonance Energy Transfer) and uses two fluorescent molecules. The first molecule, Oxonol (DiSBAC2(3)), is a highly fluorescent, negatively charged, hydrophobic ion that “senses” the trans-membrane electrical potential. In response to changes in membrane potential, it can rapidly redistribute between two binding sites on opposite sides of the plasma membrane. The voltage dependent redistribution is transduced into a ratiometric fluorescent readout via a second fluorescent molecule (Coumarin (CC2-DMPE)) that binds specifically to one face of the plasma membrane and functions as a FRET partner to the mobile voltage-sensing ion. To enable the assay to work, the channels have to be pharmacologically held in the open state. This is achieved by treating the cells with veratridine.
CHO cells expressing human NaV1.7 channels were grown in T225 flasks, in a 5% CO 2 humidified incubator to about 80% confluence. Media composition consisted of HAM/F12 with Glutamax 1.10% fetal calf serum (FCS), 100 units/ml Penicillin and 100 microgram/ml Hygromycin.
(§3) • Seed each cell lines (1.5×10^4 cells/well) into poly-D-lysine coated 384-well plates prior to experimentation. • Incubate at 37° C. in 5% CO2 for 24 hours. • Wash each well with buffer #1 (140 mM NaCl, 4.5 mM KCl, 10 mM D-Glucose, 2 mM CaCl2, 1 mM MgCl2, 10 mM HEPES, pH 7.4 adjusted with NaOH) twice using plate washer. • Add 1st loading solution containing 5 μM CC2-DMPE and 0.02% Pluronic F-127 in buffer #1. • Incubate the plate at room temperature in dark for 0.5 hours. • Wash each well with buffer #2 (160 mM Choline, 10 mM D-Glucose, 0.1 mM CaCl2, 1 mM MgCl2, 10 mM HEPES, pH 7.4 adjusted with KOH) twice using plate washer. • Add 2nd loading solution containing 15 μM DiSBAC2(3), 0.5 mM VABSC-1, 10 μM veratridine and 0.004% Pluronic F-127 in buffer #2. • Add compound solutions into the assay plate and leave the plate for 30 minutes under the dark at room temperature. • Measure by FDSS.
(§4) The data was analyzed and reported as normalized ratios of intensities measured in the 465 nm and 575 nm channels. The process of calculating these ratios was performed as follows:
(§5) “FI465B”=the mean of fluorescence intensity as baseline (before Na+ ligand addition) at 465 nm
(§6) “FI575B”=the mean of fluorescence intensity as baseline (before Na+ ligand addition) at 575 nm
(§7) “FI465Max”=maximum fluorescence intensity at 465 nm after Na+ stimulation
(§8) “FI575 Min”=minimum fluorescence intensity at 575 nm after Na+ stimulation
(§9) This analysis was performed using a computerized specific program designed for FDSS generated data. Fluorescence ratio values were plotted using XLfit to determine an IC50 value for each compound.

human Nav1.3 = target: T2, human Nav1.3 (Homo sapiens, UniProt Q9NY46); assay: FRET assay, human Nav1.3 channels expressed in HEK293 cells; format: cell-based; conditions: HEK293 cells expressing human NaV1.3, veratridine-opened channels
T2 construct: expressed in transfected cells; host or cells: HEK293
T2 sequence (Q9NY46 whole entry): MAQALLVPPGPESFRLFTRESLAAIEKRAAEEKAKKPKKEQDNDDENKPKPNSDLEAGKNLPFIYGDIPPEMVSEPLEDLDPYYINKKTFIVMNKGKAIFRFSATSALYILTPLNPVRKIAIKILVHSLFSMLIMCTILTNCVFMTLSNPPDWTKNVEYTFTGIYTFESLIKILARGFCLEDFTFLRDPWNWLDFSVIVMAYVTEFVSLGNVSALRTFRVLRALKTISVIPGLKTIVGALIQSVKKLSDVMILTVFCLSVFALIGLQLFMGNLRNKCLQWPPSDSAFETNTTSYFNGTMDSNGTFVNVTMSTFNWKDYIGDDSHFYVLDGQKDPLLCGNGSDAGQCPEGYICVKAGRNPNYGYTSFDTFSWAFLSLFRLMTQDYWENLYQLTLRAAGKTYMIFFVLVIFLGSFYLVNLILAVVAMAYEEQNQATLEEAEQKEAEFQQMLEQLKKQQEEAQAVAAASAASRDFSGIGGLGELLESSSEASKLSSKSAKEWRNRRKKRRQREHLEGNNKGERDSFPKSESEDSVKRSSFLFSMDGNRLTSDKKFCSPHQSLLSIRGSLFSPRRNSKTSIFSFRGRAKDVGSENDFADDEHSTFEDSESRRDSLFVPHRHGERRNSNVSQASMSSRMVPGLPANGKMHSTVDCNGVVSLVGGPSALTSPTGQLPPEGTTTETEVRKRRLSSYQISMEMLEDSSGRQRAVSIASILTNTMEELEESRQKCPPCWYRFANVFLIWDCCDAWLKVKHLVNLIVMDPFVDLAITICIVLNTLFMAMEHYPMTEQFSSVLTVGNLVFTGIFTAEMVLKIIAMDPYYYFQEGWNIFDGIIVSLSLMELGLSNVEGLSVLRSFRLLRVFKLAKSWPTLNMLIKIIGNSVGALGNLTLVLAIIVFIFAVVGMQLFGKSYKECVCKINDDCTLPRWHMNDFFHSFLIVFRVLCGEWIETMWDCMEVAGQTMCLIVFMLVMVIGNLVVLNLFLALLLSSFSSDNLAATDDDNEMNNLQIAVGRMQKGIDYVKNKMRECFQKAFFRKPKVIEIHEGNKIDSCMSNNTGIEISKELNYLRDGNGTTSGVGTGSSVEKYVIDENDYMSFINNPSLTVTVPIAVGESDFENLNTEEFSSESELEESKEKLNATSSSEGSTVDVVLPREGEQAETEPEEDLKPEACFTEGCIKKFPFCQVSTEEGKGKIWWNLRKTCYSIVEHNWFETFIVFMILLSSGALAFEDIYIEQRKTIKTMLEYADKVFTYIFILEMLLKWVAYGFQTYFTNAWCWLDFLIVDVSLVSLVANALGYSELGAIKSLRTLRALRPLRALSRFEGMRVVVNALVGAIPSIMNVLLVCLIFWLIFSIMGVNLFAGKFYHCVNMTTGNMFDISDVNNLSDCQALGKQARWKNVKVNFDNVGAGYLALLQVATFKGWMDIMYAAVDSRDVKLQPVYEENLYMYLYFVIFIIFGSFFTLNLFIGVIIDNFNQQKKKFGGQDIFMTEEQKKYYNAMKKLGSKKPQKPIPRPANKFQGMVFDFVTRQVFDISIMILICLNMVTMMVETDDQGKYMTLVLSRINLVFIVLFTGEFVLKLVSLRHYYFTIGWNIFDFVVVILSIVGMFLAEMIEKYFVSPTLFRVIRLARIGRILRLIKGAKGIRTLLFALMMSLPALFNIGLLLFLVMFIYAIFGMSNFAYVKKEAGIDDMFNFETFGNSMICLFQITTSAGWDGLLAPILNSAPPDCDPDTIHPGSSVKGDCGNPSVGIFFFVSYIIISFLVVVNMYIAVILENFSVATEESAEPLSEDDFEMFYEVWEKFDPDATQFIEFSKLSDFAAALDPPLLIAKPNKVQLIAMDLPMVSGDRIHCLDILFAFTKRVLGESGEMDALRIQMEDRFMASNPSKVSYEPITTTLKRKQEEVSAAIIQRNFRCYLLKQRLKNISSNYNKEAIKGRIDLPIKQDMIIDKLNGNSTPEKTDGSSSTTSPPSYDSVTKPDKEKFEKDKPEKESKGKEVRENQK
Experimental: as §1, §2
Each HEK293 cells expressing human NaV1.3 channels and HEK293 cells expressing human NaV1.5 channels were grown in T225 flasks, in a 5% CO2 humidified incubator to about 80% confluence. Media composition consisted of Dulbecco's Modified Eagle Medium (high glucose), 10% fetal calf serum (FCS), 100 units/ml Penicillin, 100 microgram/ml Streptomycin and 500 microgram/ml Geneticine.
as §3, §4, §5, §6, §7, §8, §9

T1 sequence (Q15858 whole entry): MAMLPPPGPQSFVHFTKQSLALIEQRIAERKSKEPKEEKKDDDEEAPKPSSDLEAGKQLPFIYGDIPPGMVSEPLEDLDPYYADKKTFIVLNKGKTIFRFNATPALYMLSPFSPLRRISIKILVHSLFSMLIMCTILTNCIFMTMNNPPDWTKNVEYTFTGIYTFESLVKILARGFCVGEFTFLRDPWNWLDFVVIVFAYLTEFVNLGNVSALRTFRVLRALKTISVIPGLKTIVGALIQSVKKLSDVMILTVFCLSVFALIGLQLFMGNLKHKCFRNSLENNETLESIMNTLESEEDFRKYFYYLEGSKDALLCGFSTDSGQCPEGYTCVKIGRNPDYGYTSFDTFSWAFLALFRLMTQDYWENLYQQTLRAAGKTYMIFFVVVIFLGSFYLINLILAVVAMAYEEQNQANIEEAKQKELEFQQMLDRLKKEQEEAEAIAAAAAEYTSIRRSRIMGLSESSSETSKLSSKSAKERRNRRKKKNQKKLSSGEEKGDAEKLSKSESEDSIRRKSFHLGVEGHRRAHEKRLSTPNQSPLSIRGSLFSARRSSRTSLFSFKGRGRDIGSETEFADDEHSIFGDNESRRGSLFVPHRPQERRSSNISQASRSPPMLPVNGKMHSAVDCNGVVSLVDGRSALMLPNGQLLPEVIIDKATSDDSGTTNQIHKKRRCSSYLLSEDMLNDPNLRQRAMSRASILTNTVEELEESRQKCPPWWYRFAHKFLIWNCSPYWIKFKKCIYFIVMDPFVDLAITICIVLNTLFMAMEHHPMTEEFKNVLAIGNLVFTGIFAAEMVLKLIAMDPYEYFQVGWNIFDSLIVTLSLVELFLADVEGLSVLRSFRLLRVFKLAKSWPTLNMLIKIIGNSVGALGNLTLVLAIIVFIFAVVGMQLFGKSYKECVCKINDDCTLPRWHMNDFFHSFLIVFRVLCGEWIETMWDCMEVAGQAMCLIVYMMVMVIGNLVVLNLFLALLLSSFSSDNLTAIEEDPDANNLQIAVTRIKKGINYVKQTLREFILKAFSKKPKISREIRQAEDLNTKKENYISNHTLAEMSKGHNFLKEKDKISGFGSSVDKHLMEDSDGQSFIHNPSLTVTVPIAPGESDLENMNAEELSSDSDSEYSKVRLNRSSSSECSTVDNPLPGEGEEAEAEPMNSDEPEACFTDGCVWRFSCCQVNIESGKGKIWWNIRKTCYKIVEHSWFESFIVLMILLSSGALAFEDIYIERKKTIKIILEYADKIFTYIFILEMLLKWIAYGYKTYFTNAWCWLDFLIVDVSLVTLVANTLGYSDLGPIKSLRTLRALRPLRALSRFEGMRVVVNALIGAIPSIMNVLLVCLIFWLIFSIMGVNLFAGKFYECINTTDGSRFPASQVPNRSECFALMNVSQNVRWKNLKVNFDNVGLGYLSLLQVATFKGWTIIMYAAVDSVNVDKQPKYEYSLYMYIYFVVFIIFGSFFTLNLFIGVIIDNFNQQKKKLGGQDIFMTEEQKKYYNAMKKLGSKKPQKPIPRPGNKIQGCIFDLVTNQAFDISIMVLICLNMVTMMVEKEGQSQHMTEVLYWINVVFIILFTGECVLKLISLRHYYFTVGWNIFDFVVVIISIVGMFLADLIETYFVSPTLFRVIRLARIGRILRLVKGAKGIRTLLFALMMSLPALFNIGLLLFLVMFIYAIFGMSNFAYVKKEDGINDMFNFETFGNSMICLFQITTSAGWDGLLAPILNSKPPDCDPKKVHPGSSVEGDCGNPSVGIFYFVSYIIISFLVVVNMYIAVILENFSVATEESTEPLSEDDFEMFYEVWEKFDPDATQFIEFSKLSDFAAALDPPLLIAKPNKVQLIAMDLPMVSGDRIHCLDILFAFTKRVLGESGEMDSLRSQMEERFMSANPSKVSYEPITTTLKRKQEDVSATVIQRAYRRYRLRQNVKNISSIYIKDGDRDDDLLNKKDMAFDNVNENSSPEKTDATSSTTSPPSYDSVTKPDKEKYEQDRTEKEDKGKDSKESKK

IC50 (human Nav1.7)	IC50 (human Nav1.3)	SMILES
≤ 500 nM	≤ 500 nM	COCCNC(=O)c1ncccc1OC[C@H]1CCCN1C(=O)[C@H]1CC[C@H](C(F)(F)F)CC1 [Example 37, N-(2-methoxyethyl)-3-(((R)-1-(trans-4-(trifluoromethyl)cyclohexanecarbonyl)pyrrolidin-2-yl)methoxy)picolinamide]
≤ 500 nM	≤ 500 nM	COC(=O)CNC(=O)c1ncccc1OC[C@H]1CCCN1C(=O)[C@H]1CC[C@H](C(F)(F)F)CC1 [Example 35, methyl 2-(3-(((R)-1-(trans-4-(trifluoromethyl)cyclohexanecarbonyl)pyrrolidin-2-yl)methoxy)picolinamido)acetate]
≤ 500 nM	≤ 500 nM	CC(C)(C)c1cc(C(=O)N2CCC[C@@H]2COc2cccnc2C(N)=O)no1 [Example 17, (R)-3-((1-(5-tert-butylisoxazole-3-carbonyl)pyrrolidin-2-yl)methoxy)picolinamide]
≤ 500 nM	≤ 500 nM	O=C(N[C@H](CO)c1ccccc1)c1ncccc1OC[C@H]1CCCN1C(=O)[C@H]1CC[C@H](C(F)(F)F)CC1 [Example 43, N-((S)-2-hydroxy-1-phenylethyl)-3-(((R)-1-(trans-4-(trifluoromethyl)cyclohexanecarbonyl)pyrrolidin-2-yl)methoxy) picolinamide]
≤ 500 nM	≤ 500 nM	NC(=O)c1ncccc1OC[C@@H]1CCCN1C(=O)[C@H]1CC[C@@H](C(F)(F)F)CC1 [Example 2, 3-(((S)-1-(cis-4-(trifluoromethyl)cyclohexanecarbonyl)pyrrolidin-2-yl)methoxy)picolinamide]
≤ 500 nM	≤ 500 nM	O=C(Nc1ccon1)c1ncccc1OC[C@H]1CCCN1C(=O)c1cc(C2CC2)on1 [Example 65]
≤ 500 nM	≤ 500 nM	O=C(Nc1ccon1)c1ncccc1OC[C@H]1CCCN1C(=O)CC1CCC(F)(F)CC1 [Example 66, (R)-3-((1-(2-(4,4-difluorocyclohexyl)acetyl)pyrrolidin-2-yl)methoxy)-N-(isoxazol-3-yl)picolinamide]
≤ 500 nM	≤ 500 nM	O=C(Nc1ncns1)c1ncccc1OC[C@H]1CCCN1C(=O)[C@H]1CC[C@H](C(F)(F)F)CC1 [Example 47, N-(1,2,4-thiadiazol-5-yl)-3-(((R)-1-(trans-4-(trifluoromethyl)cyclohexanecarbonyl)pyrrolidin-2-yl)methoxy) picolinamide]
≤ 500 nM	≤ 500 nM	O=C(NCCN1CCOCC1)c1ncccc1OC[C@H]1CCCN1C(=O)c1cccc(C(F)(F)F)c1 [Example 68, (R)-N-(2-morpholinoethyl)-3-((1-(3-(trifluoromethyl)benzoyl)pyrrolidin-2-yl)methoxy) picolinamide]
≤ 500 nM	≤ 500 nM	O=C(Nc1ccon1)c1ncccc1OC[C@H]1CCCN1C(=O)[C@H]1CC[C@H](C(F)(F)F)CC1 [Example 54, N-(isoxazol-3-yl)-3-(((R)-1-(trans-4-(trifluoromethyl)cyclohexanecarbonyl)pyrrolidin-2-yl)methoxy)picolinamide]
≤ 500 nM	≤ 500 nM	O=C(NC1CCOCC1)c1ncccc1OC[C@H]1CCCN1C(=O)[C@H]1CC[C@H](C(F)(F)F)CC1 [Example 49, N-(tetrahydro-2H-pyran-4-yl)-3-(((R)-1-(trans-4-(trifluoromethyl)cyclohexanecarbonyl)pyrrolidin-2-yl)methoxy) picolinamide]
≤ 500 nM	≤ 500 nM	O=C(NCc1ccccc1)c1ncccc1OC[C@H]1CCCN1C(=O)[C@H]1CC[C@H](C(F)(F)F)CC1 [Example 41, N-benzyl-3-(((R)-1-(trans-4-(trifluoromethyl)cyclohexanecarbonyl)pyrrolidin-2-yl)methoxy) picolinamide]
≤ 500 nM	≤ 500 nM	O=C(Nc1ncco1)c1ncccc1OC[C@@H]1CCCN1C(=O)[C@H]1CC[C@@H](C(F)(F)F)CC1 [Example 62, N-(oxazol-2-yl)-3-(((S)-1-(cis-4-(trifluoromethyl)cyclohexanecarbonyl)pyrrolidin-2-yl)methoxy)picolinamide]
≤ 500 nM	≤ 500 nM	O=C(Nc1ncco1)c1ncccc1OC[C@H]1CCCN1C(=O)[C@H]1CC[C@@H](C(F)(F)F)CC1 [Example 63, N-(oxazol-2-yl)-3-(((R)-1-(cis-4-(trifluoromethyl)cyclohexanecarbonyl)pyrrolidin-2-yl)methoxy)picolinamide]
≤ 500 nM	≤ 500 nM	NC(=O)c1ncc(Cl)cc1OC[C@H]1CCCN1C(=O)[C@H]1CC[C@@H](C(F)(F)F)CC1 [Example 29, 5-chloro-3-(((R)-1-(cis-4-(trifluoromethyl)cyclohexanecarbonyl)pyrrolidin-2-yl)methoxy)picolinamide]
≤ 500 nM	≤ 500 nM	NC(=O)c1ncccc1OC[C@H]1CCCN1C(=O)c1ccc(C(F)(F)F)cc1 [Example 5, (R)-3-((1-(4-(trifluoromethyl)benzoyl)pyrrolidin-2-yl)methoxy) picolinamide]
≤ 500 nM	≤ 500 nM	NC(=O)c1ncccc1OC[C@H]1CCCN1C(=O)c1ccc(OCC(F)(F)F)cc1 [Example 21, (R)-3-((1-(4-(2,2,2-trifluoroethoxy)benzoyl)pyrrolidin-2-yl)methoxy)picolinamide]
≤ 500 nM	≤ 500 nM	O=C(NCc1ccccn1)c1ncccc1OC[C@H]1CCCN1C(=O)[C@H]1CC[C@H](C(F)(F)F)CC1 [Example 40, N-(pyridin-2-ylmethyl)-3-(((R)-1-(trans-4-(trifluoromethyl)cyclohexanecarbonyl)pyrrolidin-2-yl)methoxy)picolinamide]
≤ 500 nM	≤ 500 nM	NC(=O)c1ncccc1OC[C@H]1CCCN1C(=O)c1ccc(OC(F)(F)F)cc1 [Example 25, (R)-3-((1-(4-(trifluoromethoxy)benzoyl)pyrrolidin-2-yl)methoxy) picolinamide]
≤ 500 nM	≤ 500 nM	COc1cnc(C(N)=O)c(OC[C@H]2CCCN2C(=O)[C@H]2CC[C@H](C(F)(F)F)CC2)c1 [Example 31, 5-methoxy-3-(((R)-1-(trans-4-(trifluoromethyl)cyclohexanecarbonyl)pyrrolidin-2-yl)methoxy)picolinamide]
≤ 500 nM	≤ 500 nM	O=C(NCCO)c1ncccc1OC[C@H]1CCCN1C(=O)c1cccc(C(F)(F)F)c1 [Example 69, (R)-N-(2-hydroxyethyl)-3-((1-(3-(trifluoromethyl)benzoyl)pyrrolidin-2-yl)methoxy) picolinamide]
≤ 500 nM	≤ 500 nM	O=C(NCC1(O)CCCCC1)c1ncccc1OC[C@H]1CCCN1C(=O)[C@H]1CC[C@H](C(F)(F)F)CC1 [Example 39, N-((1-hydroxycyclohexyl)methyl)-3-(((R)-1-(trans-4-(trifluoromethyl)cyclohexanecarbonyl)pyrrolidin-2-yl)methoxy)picolinamide]
≤ 500 nM	≤ 500 nM	NC(=O)c1ncccc1OC[C@H]1CCCN1C(=O)COc1ccc(C(F)(F)F)cc1 [Example 18, (R)-3-((1-(2-(4-(trifluoromethyl)phenoxy)acetyl)pyrrolidin-2-yl)methoxy)picolinamide]
≤ 500 nM	≤ 500 nM	NC(=O)c1ncc(Cl)cc1OC[C@H]1CCCN1C(=O)[C@H]1CC[C@H](C(F)(F)F)CC1 [Example 30, 5-chloro-3-(((R)-1-(trans-4-(trifluoromethyl)cyclohexanecarbonyl)pyrrolidin-2-yl)methoxy)picolinamide]

— US8969383B2, “Picolinamide derivatives as TTX-S blockers” (RaQualia Pharma Inc., priority 2009, dated 2015)
